Results on 14 compounds are retold here after patent publication US20250353864A1, “INDAZOLE CONTAINING MACROCYCLES AND THEIR USE” (BLOSSOMHILL THERAPEUTICS, INC., priority 2022, published 2025).

Structures are written as SMILES. Where only a bound is given, the exact number is not on record here.

Format in all cases: biochemical
One assay addresses EGFR L858R mutant (Homo sapiens (Human), UniProt P00533, L858R). The experiment in a line: HotSpot radiometric kinase assay, EGFR L858R mutant. As to conditions: 10 μM ATP. The gist of the method:
(§1)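 10 μM ATP (33P-labelled, final); 120 min RT; P81 filter capture, 0.75% phosphoric acid washes. Cpd preincubated ~20 min with enzyme/substrate, 20 mM Hepes pH 7.5, 10 mM MgCl2, 1% DMSO. IC50 by curve fit.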

For another assay, the target named is EGFR L858R/T790M mutant (Homo sapiens (Human), UniProt P00533, L858R/T790M). The experiment in a line: HotSpot radiometric kinase assay, EGFR L858R/T790M mutant. As to conditions: 10 μM ATP. The gist of the method: as §1
Sequence of EGFR L858R/T790M mutant (P00533 25-1210 T790M/L858R): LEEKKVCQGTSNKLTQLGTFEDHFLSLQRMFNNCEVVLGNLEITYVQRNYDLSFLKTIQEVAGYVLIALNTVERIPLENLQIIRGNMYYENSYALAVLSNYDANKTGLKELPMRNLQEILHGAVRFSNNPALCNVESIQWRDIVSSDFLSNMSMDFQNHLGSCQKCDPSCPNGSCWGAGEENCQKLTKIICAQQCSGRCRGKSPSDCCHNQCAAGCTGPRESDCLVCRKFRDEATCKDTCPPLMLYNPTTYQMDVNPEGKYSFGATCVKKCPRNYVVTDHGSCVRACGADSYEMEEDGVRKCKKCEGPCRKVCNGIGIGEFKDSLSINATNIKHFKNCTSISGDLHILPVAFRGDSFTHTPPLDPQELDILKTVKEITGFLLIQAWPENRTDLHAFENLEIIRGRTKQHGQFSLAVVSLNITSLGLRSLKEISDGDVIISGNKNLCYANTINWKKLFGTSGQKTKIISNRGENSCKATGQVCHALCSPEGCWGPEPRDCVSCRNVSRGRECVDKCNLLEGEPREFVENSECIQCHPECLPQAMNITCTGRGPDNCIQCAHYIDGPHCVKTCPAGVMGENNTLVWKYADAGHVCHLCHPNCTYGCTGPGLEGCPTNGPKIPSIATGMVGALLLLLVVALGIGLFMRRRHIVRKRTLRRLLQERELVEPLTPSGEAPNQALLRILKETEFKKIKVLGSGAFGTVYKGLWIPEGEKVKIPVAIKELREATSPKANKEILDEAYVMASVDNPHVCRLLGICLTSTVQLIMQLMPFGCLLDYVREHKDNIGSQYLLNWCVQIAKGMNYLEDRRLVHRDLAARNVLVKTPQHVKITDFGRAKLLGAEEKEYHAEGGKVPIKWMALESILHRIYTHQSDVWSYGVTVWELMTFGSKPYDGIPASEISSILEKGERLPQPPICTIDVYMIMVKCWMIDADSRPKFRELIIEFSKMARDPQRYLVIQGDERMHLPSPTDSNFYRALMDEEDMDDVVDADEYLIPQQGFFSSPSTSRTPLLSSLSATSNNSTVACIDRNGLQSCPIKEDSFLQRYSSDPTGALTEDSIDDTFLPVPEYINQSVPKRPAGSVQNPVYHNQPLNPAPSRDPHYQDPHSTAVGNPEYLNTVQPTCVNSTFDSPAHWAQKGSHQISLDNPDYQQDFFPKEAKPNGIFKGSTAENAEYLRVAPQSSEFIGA
For a further assay, the target named is EGFR Δ746-750 mutant (Homo sapiens (Human), UniProt P00533, DEL746-750). The experiment in a line: HotSpot radiometric kinase assay, EGFR Δ746-750 mutant. As to conditions: 10 μM ATP. The gist of the method:
as §1

Assay [1] deals with EGFR Δ746-750/C797S mutant (Homo sapiens (Human), UniProt P00533, C797S/DEL746-750). The experiment in a line: HotSpot radiometric kinase assay, EGFR Δ746-750/C797S mutant. As to conditions: 10 μM ATP. The gist of the method: as §1
Sequence of EGFR Δ746-750/C797S mutant (P00533 other isoform, or with tags, fused parts or gaps C797S/del 1-668/del 746-750 limits assumed): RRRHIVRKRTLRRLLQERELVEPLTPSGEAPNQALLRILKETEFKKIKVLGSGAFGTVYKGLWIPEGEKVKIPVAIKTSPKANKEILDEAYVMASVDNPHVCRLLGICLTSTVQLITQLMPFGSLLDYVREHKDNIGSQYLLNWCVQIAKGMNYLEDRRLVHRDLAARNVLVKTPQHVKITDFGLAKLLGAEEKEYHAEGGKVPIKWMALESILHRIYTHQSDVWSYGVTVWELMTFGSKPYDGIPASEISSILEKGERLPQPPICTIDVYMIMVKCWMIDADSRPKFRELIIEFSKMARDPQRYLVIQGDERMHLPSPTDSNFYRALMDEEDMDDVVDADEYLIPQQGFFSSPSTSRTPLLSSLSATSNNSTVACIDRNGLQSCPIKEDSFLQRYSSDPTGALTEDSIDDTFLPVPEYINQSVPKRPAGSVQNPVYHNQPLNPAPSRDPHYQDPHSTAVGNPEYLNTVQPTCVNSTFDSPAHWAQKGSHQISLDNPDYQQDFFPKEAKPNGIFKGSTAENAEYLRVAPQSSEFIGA
Another assay has as its target EGFR (D770_N771insNPG) (Homo sapiens (Human), UniProt P00533, INS770NPG). The experiment in a line: HotSpot radiometric kinase assay, EGFR (D770_N771insNPG). As to conditions: 10 μM ATP, read-out: EGFR (Δ770_N771insNPG) IC50. The gist of the method: as §1
For assay [2], the target named is EGFR L858R/T790M/C797S mutant (Homo sapiens (Human), UniProt P00533, C797S/L858R/T790M). The experiment in a line: HotSpot radiometric kinase assay, EGFR L858R/T790M/C797S mutant. As to conditions: 10 μM ATP. The gist of the method: as §1
Sequence of EGFR L858R/T790M/C797S mutant (P00533 25-1210 T790M/C797S/L858R): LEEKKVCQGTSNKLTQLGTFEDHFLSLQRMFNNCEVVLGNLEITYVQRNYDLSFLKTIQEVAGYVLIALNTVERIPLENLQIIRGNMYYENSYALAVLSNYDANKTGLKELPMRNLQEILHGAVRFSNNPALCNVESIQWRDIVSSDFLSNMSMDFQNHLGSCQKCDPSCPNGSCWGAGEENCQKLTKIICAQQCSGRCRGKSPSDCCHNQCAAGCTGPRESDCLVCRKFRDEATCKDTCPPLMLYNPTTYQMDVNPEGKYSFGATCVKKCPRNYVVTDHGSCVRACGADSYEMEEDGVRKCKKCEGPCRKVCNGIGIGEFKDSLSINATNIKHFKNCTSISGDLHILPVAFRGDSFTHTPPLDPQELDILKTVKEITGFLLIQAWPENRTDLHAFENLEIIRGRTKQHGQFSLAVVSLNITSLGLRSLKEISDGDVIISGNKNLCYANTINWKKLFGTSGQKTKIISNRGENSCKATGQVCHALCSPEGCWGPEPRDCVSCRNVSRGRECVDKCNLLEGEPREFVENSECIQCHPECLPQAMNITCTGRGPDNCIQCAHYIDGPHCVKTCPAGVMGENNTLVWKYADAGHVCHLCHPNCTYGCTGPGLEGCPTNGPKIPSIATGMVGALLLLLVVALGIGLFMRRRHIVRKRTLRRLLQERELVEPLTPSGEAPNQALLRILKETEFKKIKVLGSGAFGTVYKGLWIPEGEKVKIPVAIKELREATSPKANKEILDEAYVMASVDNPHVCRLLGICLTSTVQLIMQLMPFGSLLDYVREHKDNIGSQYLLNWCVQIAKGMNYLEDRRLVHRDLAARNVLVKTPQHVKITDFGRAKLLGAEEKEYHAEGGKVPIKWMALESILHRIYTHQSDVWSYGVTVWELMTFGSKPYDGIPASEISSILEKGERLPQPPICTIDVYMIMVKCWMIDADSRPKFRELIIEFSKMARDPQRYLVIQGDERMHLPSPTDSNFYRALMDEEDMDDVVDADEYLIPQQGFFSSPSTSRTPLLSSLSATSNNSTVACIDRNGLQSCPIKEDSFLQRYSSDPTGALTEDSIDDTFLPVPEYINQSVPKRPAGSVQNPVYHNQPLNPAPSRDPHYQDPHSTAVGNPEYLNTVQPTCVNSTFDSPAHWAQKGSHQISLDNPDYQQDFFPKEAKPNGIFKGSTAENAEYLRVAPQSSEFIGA
The target of another assay is EGFR WT (Homo sapiens (Human), UniProt P00533). The experiment in a line: HotSpot radiometric kinase assay (Reaction Biology), EGFR WT. The settings on record: 10 μM ATP. The gist of the method: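 Radiometric filter-binding read-out: incorporated 33P was retained on P81 ion-exchange paper after washing away unbound phosphate. Reactions ran 120 min at room temperature with 10 μM final ATP, following ~20 min compound preincubation in Hepes pH 7.5 buffer containing 1% DMSO. IC50 from fitted curves.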

Sequence of EGFR (D770_N771insNPG) (P00533 other isoform, or with tags, fused parts or gaps del 1-668/ins NPG behind 770 limits assumed): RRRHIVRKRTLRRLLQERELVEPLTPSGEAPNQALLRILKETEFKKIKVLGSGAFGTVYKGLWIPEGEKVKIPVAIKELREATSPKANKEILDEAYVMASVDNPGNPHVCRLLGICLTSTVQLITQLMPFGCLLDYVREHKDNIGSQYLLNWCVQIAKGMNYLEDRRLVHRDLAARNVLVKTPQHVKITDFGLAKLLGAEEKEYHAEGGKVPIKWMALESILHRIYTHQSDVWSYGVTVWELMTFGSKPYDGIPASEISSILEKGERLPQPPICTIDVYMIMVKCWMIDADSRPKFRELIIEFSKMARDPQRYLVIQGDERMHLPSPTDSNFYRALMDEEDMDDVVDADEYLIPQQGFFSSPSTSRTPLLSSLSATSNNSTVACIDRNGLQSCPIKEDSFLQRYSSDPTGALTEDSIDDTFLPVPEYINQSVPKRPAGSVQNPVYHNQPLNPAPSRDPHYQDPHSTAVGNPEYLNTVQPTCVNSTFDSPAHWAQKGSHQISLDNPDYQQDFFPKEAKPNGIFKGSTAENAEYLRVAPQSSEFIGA
Sequence of EGFR L858R mutant (P00533 25-1210 L858R): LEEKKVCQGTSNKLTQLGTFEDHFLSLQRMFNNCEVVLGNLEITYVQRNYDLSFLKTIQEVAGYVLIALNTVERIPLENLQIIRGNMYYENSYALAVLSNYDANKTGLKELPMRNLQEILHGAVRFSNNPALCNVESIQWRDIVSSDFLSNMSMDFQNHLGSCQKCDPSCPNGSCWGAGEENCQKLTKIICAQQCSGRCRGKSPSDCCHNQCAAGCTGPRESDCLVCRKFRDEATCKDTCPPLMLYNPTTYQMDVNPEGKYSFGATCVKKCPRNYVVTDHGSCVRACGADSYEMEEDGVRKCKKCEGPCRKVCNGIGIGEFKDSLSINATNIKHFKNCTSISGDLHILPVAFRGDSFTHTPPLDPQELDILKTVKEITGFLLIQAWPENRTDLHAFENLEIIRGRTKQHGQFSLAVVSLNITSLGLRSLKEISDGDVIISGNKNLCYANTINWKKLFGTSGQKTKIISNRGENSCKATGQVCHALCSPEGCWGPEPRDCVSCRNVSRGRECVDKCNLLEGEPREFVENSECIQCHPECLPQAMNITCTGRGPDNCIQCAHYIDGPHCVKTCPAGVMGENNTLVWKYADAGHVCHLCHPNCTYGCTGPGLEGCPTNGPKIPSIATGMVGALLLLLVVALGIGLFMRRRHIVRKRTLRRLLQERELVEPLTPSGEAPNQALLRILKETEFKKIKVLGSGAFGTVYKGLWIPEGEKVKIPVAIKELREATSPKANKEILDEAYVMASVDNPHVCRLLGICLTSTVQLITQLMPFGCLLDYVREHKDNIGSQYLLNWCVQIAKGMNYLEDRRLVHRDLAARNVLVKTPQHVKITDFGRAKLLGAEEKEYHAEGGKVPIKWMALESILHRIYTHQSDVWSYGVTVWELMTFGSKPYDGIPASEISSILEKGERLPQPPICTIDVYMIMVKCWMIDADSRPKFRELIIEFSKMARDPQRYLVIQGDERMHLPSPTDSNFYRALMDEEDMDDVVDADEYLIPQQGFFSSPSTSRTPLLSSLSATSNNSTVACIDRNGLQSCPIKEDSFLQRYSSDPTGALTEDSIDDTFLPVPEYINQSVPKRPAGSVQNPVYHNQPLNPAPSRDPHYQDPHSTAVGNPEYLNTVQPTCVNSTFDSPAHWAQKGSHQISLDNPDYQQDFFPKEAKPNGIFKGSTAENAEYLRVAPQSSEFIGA

As for `Cn1ncc2c1COCCOc1ccccc1/C=C/c1n[nH]c3ccc-2cc13` [Ex. 1, (11E)-1-methyl-1,18,19,21-tetrahydro-8H-10,7,4-(ethan[1]yl[1,2]diylidene)pyrazolo[3,4-f][1,4,12,13]benzodioxadiazacyclooctadecine], the IC50 is 848 nM against EGFR L858R mutant; 251 nM against EGFR L858R/T790M mutant; 68.4 nM against EGFR Δ746-750 mutant; 177 nM in assay [1]; greater than 1000 nM on EGFR (D770_N771insNPG); 259 nM in assay [2]. Besides, the IC50 at EGFR WT is greater than 1000 nM.
As for `Cc1nn([C@H]2CCNC[C@@H]2O)c2c1/C=C/c1n[nH]c3ccc(cc13)-c1cnn(C)c1OCCCO2` (racemic) [Example 80, (rac)-4-[(17E)-8,16-dimethyl-2,8,11,12-tetrahydro-10H,14H-3,5-etheno[1,5]dioxacyclopentadecino[10,11-c:15,14-c′:6,7-c′]tripyrazol-14-yl]piperidin-3-ol], the IC50 on EGFR L858R mutant was determined as 24.7 nM; against EGFR L858R/T790M mutant it was 4.37 nM; on EGFR Δ746-750 mutant, 38.7 nM; in assay [1], 39.2 nM; at EGFR (D770_N771insNPG), 59.1 nM; in assay [2], 11.2 nM. Besides, the IC50 against EGFR WT came out at 50.8 nM.
Turning to `CCOc1nn(CCO)c2c1/C=C/c1n[nH]c3ccc(cc13)-c1cnn(C)c1O[C@@H]1CN(C)C[C@H]1N(C)C2` (single isomer, unassigned) [Ex. 271], the IC50 against EGFR L858R mutant was 1580 nM; on EGFR L858R/T790M mutant, 56.7 nM; at EGFR Δ746-750 mutant, 472 nM; in assay [1], 422 nM; on EGFR (D770_N771insNPG) it was greater than 1000 nM; in assay [2] it was 31.6 nM. At EGFR WT, this compound showed an IC50 greater than 1000 nM.
For `Cc1c2c(nn1CCN1CCOCC1)CN(C)C[C@H](C)Oc1c(cnn1C)-c1ccc3[nH]nc(c3c1)/C=C/2` [Example 93, (10S,17E)-8,10,12,16-tetramethyl-15-[2-(morpholin-4-yl)ethyl]-2,10,11,12,13,15-hexahydro-8H-3,5-ethenotripyrazolo[3,4-f:3′,4′-j:4″,3″- n][1,4]oxazacyclopentadecine], the IC50 is 11.4 nM on EGFR L858R mutant; 0.86 nM at EGFR L858R/T790M mutant; 49.2 nM on EGFR Δ746-750 mutant; 16.7 nM in assay [1]; 138 nM at EGFR (D770_N771insNPG); 5.02 nM in assay [2]. Besides, the IC50 against EGFR WT stood at 69.2 nM.
As to `CCOc1ccc2c(n1)/C=C/c1n[nH]c3ccc(cc13)-c1cnn(C)c1O[C@@H](C)CN(C)C2` [Ex. 267, (10S,18E)-16-ethoxy-8,10,12-trimethyl-2,8,10,11,12,13-hexahydro-3,5-ethenodipyrazolo[3,4-j:4′,3′-n]pyrido[3,2-f][1,4]oxazacyclopentadecine], the IC50 against EGFR L858R mutant came to 241 nM; on EGFR L858R/T790M mutant, 8.31 nM; against EGFR Δ746-750 mutant, 117 nM; in assay [1], 107 nM; on EGFR (D770_N771insNPG), 1230 nM; in assay [2], 5.42 nM. The compound further yielded an IC50 against EGFR WT of 769 nM.
As to `C[C@H]1CN(C)Cc2nn3c(c2/C=C/c2n[nH]c4ccc(cc24)-c2cnn(C)c2O1)CN(CCS(C)(=O)=O)CC3` [Example 166, (10S,20E)-18-[2-(methanesulfonyl)ethyl]-8,10,12-trimethyl-2,8,10,11,12,13,16,17,18,19-decahydro-3,5-ethenopyrazino[1′,2′:1,5]pyrazolo [3,4-f]dipyrazolo[3,4-j:4′,3′-n][1,4]oxazacyclopentadecine], the IC50 stood at 12.8 nM on EGFR L858R mutant; 0.72 nM at EGFR L858R/T790M mutant; 15 nM at EGFR Δ746-750 mutant; 8.1 nM in assay [1]; 45.6 nM at EGFR (D770_N771insNPG); 0.55 nM in assay [2]. Further, the IC50 against EGFR WT came out at 99.8 nM.
For `Cc1nn([C@H]2CCOC[C@@H]2O)c2c1/C=C/c1n[nH]c3ccc(cc13)-c1cnn(C)c1OCCCO2` (racemic) [Example 85, (rac)-1,5-anhydr-3o-2,3-dideoxy-3-[(17E)-8,16-dimethyl-2,8,11,12-tetrahydro-10H,14H-3,5-etheno[1,5]dioxacyclopentadecino[10,11-c:15,14-c′:6,7-c″ ]tripyrazol-14-yl]-L-threo-pentitol], the IC50 (at EGFR L858R mutant; on EGFR L858R/T790M mutant; against EGFR Δ746-750 mutant; in assay [1]; on EGFR (D770_N771insNPG); in assay [2]) was greater than 1000 nM each time. The IC50 against EGFR WT was greater than 1000 nM.
`Cc1nn([C@H]2CCN(C)C[C@@H]2O)c2c1/C=C/c1n[nH]c3ccc(cc13)-c1cnn(C)c1OCCCO2` (racemic) [Example 82, (rac)-4-[(17E)-8,16-dimethyl-2,8,11,12-tetrahydro-10H,14H-3,5-etheno[1,5]dioxacyclopentadecino[10,11-c:15,14-c′:6,7-c′]tripyrazol-14-yl]-1-methylpiperidin-3-ol]: the IC50 against EGFR L858R mutant came out at 15.3 nM; at EGFR L858R/T790M mutant, 1.24 nM; at EGFR Δ746-750 mutant, 27.9 nM; in assay [1], 29.8 nM; on EGFR (D770_N771insNPG), 56.7 nM; in assay [2], 5.77 nM. At EGFR WT, the IC50 was 67.8 nM.
For `Cn1ncc2c1OCCCOc1nn3ccn(C)c(=O)c3c1/C=C/c1n[nH]c3ccc-2cc13` [Example 91, (20E)-8,18-dimethyl-2,8,11,12-tetrahydro-10H-3,5-ethenodipyrazolo[3″,4″:10′,11′;4′″,3′″:14′,15′][1,5]dioxacyclopentadecino[6′,7′:3,4]pyrazolo[1,5-a]pyrazin-19(18H)-one], the IC50 at EGFR L858R mutant was greater than 1000 nM; against EGFR L858R/T790M mutant, 400 nM; on EGFR Δ746-750 mutant, greater than 1000 nM; in assay [1], greater than 1000 nM; at EGFR (D770_N771insNPG), greater than 1000 nM; in assay [2], greater than 1000 nM. The compound also came in with an IC50 against EGFR WT greater than 1000 nM.
On to `Cc1c2c(nn1CCN1CCCC1)CN(C)C[C@@H](C)Oc1c(cnn1C)-c1ccc3[nH]nc(c3c1)/C=C/2` [Example 121, (10R,17E)-8,10,12,16-tetramethyl-15-[2-(pyrrolidin-1-yl)ethyl]-2,10,11,12,13,15-hexahydro-8H-3,5-ethenotripyrazolo[3,4-f:3′,4′-j:4″,3″- n][1,4]oxazacyclopentadecine], for which the IC50 at EGFR L858R mutant turned out to be 94.1 nM; against EGFR L858R/T790M mutant, 6.14 nM; on EGFR Δ746-750 mutant, 40.7 nM; in assay [1], 41.3 nM; at EGFR (D770_N771insNPG), 283 nM; in assay [2] it was 13 nM. This compound returned an IC50 on EGFR WT of 296 nM.
For `Cc1nn(CCO)c2c1/C=C/c1n[nH]c3ccc(cc13)-c1c(C)nn(C)c1O[C@@H](C)CN(C)C2` [Example 138, 2-[(10S,17E)-6,8,10,12,16-pentamethyl-2,8,10,11,12,13-hexahydro-14H-3,5-ethenotripyrazolo[3,4-f:3′,4′-j:4″,3″-n][1,4]oxazacyclopentadecin-14-yl]ethan-1-o], the IC50 against EGFR L858R mutant worked out at 3.5 nM; against EGFR L858R/T790M mutant it was 0.61 nM; on EGFR Δ746-750 mutant it was 3.64 nM; in assay [1], 1.4 nM; at EGFR (D770_N771insNPG) it was 85.2 nM; in assay [2] it was 0.55 nM. The compound also showed a 50% inhibitory concentration (IC50) at EGFR WT of 23.8 nM.
On to `Cc1nn(CCO)c2c1/C=C/c1n[nH]c3ccc(cc13)-c1cnn(C)c1OC(C1CCC1)CN(C)C2` (centres unmarked) [Example 152, 2-[(17E)-10-cyclobutyl-8,12,16-trimethyl-2,8,10,11,12,13-hexahydro-14H-3,5-ethenotripyrazolo[3,4-f:3′,4′-j:4″,3″-n][1,4]oxazacyclopentadecin-14-yl]ethan-1-ol], for which the IC50 on EGFR L858R mutant was 20.7 nM; on EGFR L858R/T790M mutant it was 0.58 nM; against EGFR Δ746-750 mutant it was 61.5 nM; in assay [1], 86.4 nM; on EGFR (D770_N771insNPG) it was 94.5 nM; in assay [2] it was 0.62 nM. The same compound yielded an IC50 on EGFR WT of 112 nM.
As for `Cc1nn(C)c2c1-c1ccc3[nH]nc(c3c1)/C=C/c1c(OC(C)C)nn(CCO)c1CN(C(C)C)C[C@@H](C)O2` [Example 202, 2-{(10R,17E)-6,8,10-trimethyl-12-(propan-2-yl)-16-[(propan-2-yl)oxy]-2,8,10,11,12,13-hexahydro-14H-3,5-ethenotripyrazolo[3,4-f:3′,4′-j:4″,3″-n][1,4]oxazacyclopentadecin-14-yl}ethan-1-ol], the IC50 was 98.8 nM at EGFR L858R mutant; 3.38 nM against EGFR L858R/T790M mutant; 45 nM against EGFR Δ746-750 mutant; 20.7 nM in assay [1]; 423 nM at EGFR (D770_N771insNPG); 2 nM in assay [2]. On EGFR WT, this compound yielded an IC50 of 179 nM.
Consider `Cc1nn([C@H]2CC[C@@H]2O)c2c1/C=C/c1n[nH]c3ccc(cc13)-c1cnn(C)c1OCCCO2` (racemic) [Example 78, (rac)-2-[(17E)-8,16-dimethyl-2,8,11,12-tetrahydro-10H,14H-3,5-etheno[1,5]dioxacyclopentadecino[10,11-c:15,14-c′:6,7-c″ ]tripyrazol-14-yl]cyclobutan-1-ol], for which the IC50 at EGFR L858R mutant is 688 nM; against EGFR L858R/T790M mutant, 206 nM; against EGFR Δ746-750 mutant it was 212 nM; in assay [1] it was 775 nM; at EGFR (D770_N771insNPG) it was 910 nM; in assay [2], 296 nM. The IC50 at EGFR WT was greater than 1000 nM.

What is called IC50 is the point on the concentration scale where inhibition reaches its midpoint.
